# Assay results from patent publication US20250134938A1 (priority 2023, published 2025).
# Values joined by “and” are separate entries in the source; they are usually repeats but may differ in a detail not shown here. Equal values may be shown once.
# Tests used:
# [1] = Bile resistance in artificial bile; assay type: physicochemical; details: 0.3% oxgall, 37° C., 24 hours
# Protocol: Artificial bile was prepared by adding 3% of a 10% Bacto oxgall (Becton, Dickinson and Company) solution filtered through a 0.22-μm membrane to sterilized MRS broth to give a final oxgall concentration of 0.3%. […] 1 mL of the sample was taken, diluted decimally with 9 mL of saline, smeared on LAB Petrifilm, and incubated at 37° C. for 1-2 days to determine the number of live bacteria (Table 13). Bile resistance was calculated using the following equation. A sample incubated in MRS broth without addition of oxgall was used as a control group.
# [2] = Pancreatic juice resistance in artificial pancreatic juice; assay type: physicochemical; details: 0.5% pancreatin, listed as LGG
# Protocol: Artificial pancreatic juice was prepared by adding 5% of a 10% pancreatin solution (0.85% NaCl, pH 8.0) filtered through a 0.22-μm membrane to sterilized MRS broth to a final pancreatin concentration of 0.5%. A Lactobacillus seed culture obtained by incubating at 37° C. for 20 hours after inoculation to MRS broth was added to 5 mL of the artificial pancreatic juice to 1% (v/v) and incubated at 37° C. […] Pancreatic juice resistance was calculated using the following equation. A sample at 0 hour of incubation was used as a control group. [formula]
# [3] = DPPH radical scavenging assay; assay type: biochemical; details: culture supernatant; relative to 2 mM ascorbic acid
# Protocol: Louis, MO, USA) radical scavenging assay. […] 0.1 mM DPPH diluted in methanol was used in the experiment. […] The reaction mixture was centrifuged at 13,000 rpm for 1 minute. 200 μL of the supernatant was dispensed into a 96-well plate, and absorbance was measured at 517 nm using a microplate reader (Epoch microplate reader, Biotek Instruments, Inc., Winooski, VT, USA). DPPH radical scavenging activity was calculated using the following equation and expressed as a relative value to the DPPH radical scavenging activity of the positive control group, 2 mM ascorbic acid. DPPH Radical Scavenging Activity (%)=(1-(Absorbance of Sample/Absorbance of Control Group))×100
# [4] = test system: RAW 264.7 cells; experiment: NO production by RAW 264.7 macrophages (Griess reagent); assay type: cell-based, mouse; details: MOI 100, 24 hours, LPS 1 μg/mL as 100%
# Protocol: RAW 264.7 cells (KCLB40071), which are mouse macrophages, were purchased from the Korean Cell Line Bank. They were inoculated to DMEM (high-glucose Dulbecco's modified Eagle's medium; GIBCO, Grand Island, NY, USA) containing 10% (v/v) fetal bovine serum (FBS, GIBCO) and 1% (v/v) penicillin-streptomycin (P/S, GIBCO), cultured at 37° C. in a 5% CO2 incubator (Thermo Fisher Scientific, Waltham, MA, USA), and then detached using a cell scraper (SPL, Pocheon, Korea).
# Cell precipitates were harvested by centrifugation at 10,000 rpm for 5 minutes at 4° C. for 5 times. Afterward, they were washed three times with DPBS (Dulbecco's phosphate buffered saline; Welgene, Gyeongsan, Korea). […]
# NO production by RAW 264.7 macrophages was measured using a Griess reagent. […] 100 µL of the culture was added to a 96-well plate and, after adding 100 μL of a Griess reagent A and a Griess reagent B of equal amounts, reaction was conducted for 15 minutes in the dark, and absorbance was measured at 540 nm with a microplate reader. A standard curve for NO production versus absorbance was constructed using a sample of 250 µM NaNO2 diluted 2-fold with DMEM to […], and NO concentration was calculated from the measured absorbance value.
# [5] = Acid resistance in artificial gastric fluid; assay type: physicochemical; details: pH 2.5, 2 h
# Protocol: Artificial gastric fluid was prepared by adjusting the pH of 100 mM glycine-HCl buffer to 2.5. After inoculating Lactobacillus seed culture incubated at 37° C. for 20 hours to 1% (v/v) in 4 mL of MRS broth, the culture was incubated at 37° C. for 16 hours. The culture was centrifuged at 13000 rpm for 1 minute and the obtained cell precipitate was washed twice with 0.88% (w/v) NaCl (sterile physiological saline). The washed pellet was resuspended in 4 mL of the artificial gastric fluid and incubated at 37° C. After 2 hours of incubation, 1 mL of the sample was taken and centrifuged at 13000 rpm for 1 minute to obtain a cell pellet, which was washed three times with sterile physiological saline and resuspended in 1 mL of sterile physiological saline. After decimally diluting with 9 mL saline, followed by smearing on LAB Petrifilm, the sample was incubated at 37° C. for 1-2 days and the live bacteria were counted (Table 12). Acid resistance was calculated using the following equation. The sample at 0 hour of incubation was used as a control group. [formula]
# [6] = Number of live bacteria and pH of coconut fermented milk; details: coconut milk fermented at 37° C. for 16 hours; listed as LGG
# Protocol: Then, cells were harvested by centrifuging the Lactobacillus culture (13,000 rpm, 1 minute, 4° C.). The cell precipitate was washed 3 times with 0.85% (w/v) NaCl (sterile physiological saline) and then suspended in 1 mL of sterile physiological saline (The concentration of the suspension was 1×10^8 CFU/mL). (2) 1% (v/v) of the suspended strain was inoculated to 3 mL of coconut milk with a solid content of 8 wt %, and coconut fermented milk was prepared by fermenting at 37° C. for 16 hours. After measuring the pH of the coconut fermented milk prepared in Example 11-1, it was decimally diluted with sterile physiological saline and the number of live bacteria was counted on a […] lactic acid bacteria count plate (3M Company, St. Paul, MN, USA) after culturing for 1 to 2 days.
# [7] = test system: Caco-2 cells; experiment: Ability of intestinal adherence; assay type: cell-based, human; details: MOI 200, 2 hours, listed as LGG
# Protocol: Caco-2 cells (human colorectal adenocarcinoma cells, HTB-37™), which are enterocyte-like cells, purchased from the ATCC were cultured in DMEM medium supplemented with 10% (v/v) FBS (Cornig) and 1% (v/v) P/S at 37° C. under 5% CO2 in an incubator (Thermo Fisher Scientific, Waltham, MA, USA). 0.25% trypsin-EDTA (GIBCO) was used to detach the cells from a culture flask.
# 500 μL of the Caco-2 cells were seeded in a 24-well plate at a density of 5×10^5 cells/well and cultured for 3 days at 37° C. and 5% CO2. The 24-well plate in which the Caco-2 cells were cultured was washed twice with 500 μL of DMEM medium supplemented with 10% FBS. After treating with Lactobacilli at a concentration of MOI 200, the cells were incubated at 37° C. and 5% CO2 for 2 hours. After the incubation, each well was washed four times with 500 μL of DPBS to remove the unattached strain. 200 μL of 0.25% trypsin-EDTA was dispensed into each well and incubated for 5 minutes at 37° C. and 5% CO2. The detached Caco-2 cells and strain were collected in a 1.5-mL tube together with […] of DPBS and centrifuged at 13,000 rpm for 1 minute to harvest a cell pellet, which was washed twice with 1 mL of DPBS. […] After decimal dilution, followed by smearing on Petrifilm and incubation at 37° C. for 24 hours, the number of live bacteria was determined. The ability of intestinal adhesion was calculated by the following equation.
substance,measurement,setting,value
Lactobacillus rhamnosus GG,Bile resistance (%),[1],63.6 ± 9.3%
same,live bacteria 0 h (CFU/mL),[2]; 0 h (control),1.30 × 10^9 CFU/mL and 1.73 × 10^9 CFU/mL and 1.12 × 10^9 CFU/mL
same,live bacteria 2 h (CFU/mL),"[2]; 37° C., 2 h",3.14 × 10^9 CFU/mL and 3.87 × 10^9 CFU/mL and 2.74 × 10^9 CFU/mL
same,Pancreatic juice resistance (%) Average,[2]; average,104.1% and 104.1 ± 0.3%
same,Pancreatic juice resistance (%),[2]; single replicate,104.2% and 103.8% and 104.3%
same,DPPH radical scavenging activity (%),[3],97.2%
same,NO production (% of positive control group),[4],18.5 ± 3.2%
same,NO production (% of positive control group),[4]; listed as LGG,18.47%
same,Acid resistance (%) Average,[5],83.3%
same,Acid resistance (%) Average,[5]; listed as LGG,83.3 ± 2.3%
same,Acid resistance (%),"[5]; single replicate, listed as LGG",81.2% and 85.8% and 83.0%
same,pH,[6],3.57 and 3.57 ± 0.06
same,Ability of intestinal adherence (%),[7],75.5% and 75.5 ± 9.3%
